# Measured values taken from ChEMBL document CHEMBL3885881, “DrugMatrix”.
# Species on record: Rattus norvegicus
# Experiment: DrugMatrix - Regimen: Daily Repeat
# Format: toxicity, organism-based, Sprague-Dawley
# Design: regimen Daily Repeat, gender Male, age 6-8 weeks
# Conditions: in vivo, po, route oral GAVAGE, vehicle 100 % WATER; for ABSOLUTE BASOPHIL / ABSOLUTE EOSINOPHIL / ABSOLUTE LYMPHOCYTE / ABSOLUTE MONOCYTE / ABSOLUTE SEGMENTED NEUTROPHIL / BASOPHIL / EOSINOPHIL / ERYTHROCYTE COUNT / HEMATOCRIT / HEMOGLOBIN / LEUKOCYTE COUNT / LYMPHOCYTE / MEAN CORPUSCULAR HEMOGLOBIN / MEAN CORPUSCULAR HEMOGLOBIN CONCENTRATION / MEAN CORPUSCULAR VOLUME / MONOCYTE / NEUTROPHIL / NUCLEATED RED BLOOD CELLS / PLATELET COUNT: tissue Blood; for ALANINE AMINOTRANSFERASE / ALBUMIN / ALKALINE PHOSPHATASE / ASPARTATE AMINOTRANSFERASE / BLOOD UREA NITROGEN / CARBON DIOXIDE / CHLORIDE / CHOLESTEROL / CREATINE PHOSPHOKINASE / CREATININE / GLUCOSE / LACTATE DEHYDROGENASE / LIPASE / PHOSPHORUS / POTASSIUM / SODIUM / TOTAL BILIRUBIN / TOTAL PROTEIN / URIC ACID: tissue Plasma
# [1] = 0 mg/kg, 72 h, dose level Control, time 3 day
# [2] = 0 mg/kg, 120 h, dose level Control, time 5 day
# [3] = 10 mg/kg, 72 h, dose level Low, time 3 day
smiles,measurement,setting,value
CC(C)(C)NC[C@H](O)COc1nsnc1N1CCOCC1 [TIMOLOL],ABSOLUTE BASOPHIL,[1],0 CELLS/uL
same,ABSOLUTE EOSINOPHIL,[1],0 CELLS/uL
same,ABSOLUTE LYMPHOCYTE,[1],8482.5 CELLS/uL
same,ABSOLUTE MONOCYTE,[1],63.83 CELLS/uL
same,ABSOLUTE SEGMENTED NEUTROPHIL,[1],887 CELLS/uL
same,BASOPHIL,[1],0%
same,EOSINOPHIL,[1],0%
same,ERYTHROCYTE COUNT,[1],5.49 x10E6/uL
same,HEMATOCRIT,[1],34.5%
same,HEMOGLOBIN,[1],13.33 G/DL
same,LEUKOCYTE COUNT,[1],9.43 x10E3/uL
same,LYMPHOCYTE,[1],90.17%
same,MEAN CORPUSCULAR HEMOGLOBIN,[1],24.3 pg
same,MEAN CORPUSCULAR HEMOGLOBIN CONCENTRATION,[1],38.63 G/DL
same,MEAN CORPUSCULAR VOLUME,[1],62.88 fL
same,MONOCYTE,[1],0.67%
same,NEUTROPHIL,[1],9.17%
same,NUCLEATED RED BLOOD CELLS,[1],0.67 /100WBC
same,PLATELET COUNT,[1],1022.83 x10E3/uL
same,ALANINE AMINOTRANSFERASE,[1],50.5 u/L
same,ALBUMIN,[1],4.08 G/DL
same,ALKALINE PHOSPHATASE,[1],368.33 u/L
same,ASPARTATE AMINOTRANSFERASE,[1],87.5 u/L
same,BLOOD UREA NITROGEN,[1],12.83 mg/dL
same,CARBON DIOXIDE,[1],32.83 mmol/L
same,CHLORIDE,[1],99.67 MEQ/L
same,CHOLESTEROL,[1],79.67 mg/dL
same,CREATINE PHOSPHOKINASE,[1],585 u/L
same,CREATININE,[1],0.22 mg/dL
same,GLUCOSE,[1],135.67 mg/dL
same,LACTATE DEHYDROGENASE,[1],171 u/L
same,LIPASE,[1],9.5 u/L
same,PHOSPHORUS,[1],11.18 mg/dL
same,POTASSIUM,[1],6.25 MEQ/L
same,SODIUM,[1],144.87 MEQ/L
same,TOTAL BILIRUBIN,[1],0.2 mg/dL
same,TOTAL PROTEIN,[1],6.08 G/DL
same,URIC ACID,[1],0.65 mg/dL
same,ABSOLUTE BASOPHIL,[2],0 CELLS/uL
same,ABSOLUTE EOSINOPHIL,[2],14.5 CELLS/uL
same,ABSOLUTE LYMPHOCYTE,[2],7596.17 CELLS/uL
same,ABSOLUTE MONOCYTE,[2],69.67 CELLS/uL
same,ABSOLUTE SEGMENTED NEUTROPHIL,[2],503 CELLS/uL
same,BASOPHIL,[2],0%
same,EOSINOPHIL,[2],0.17%
same,ERYTHROCYTE COUNT,[2],5.49 x10E6/uL
same,HEMATOCRIT,[2],34.72%
same,HEMOGLOBIN,[2],13.47 G/DL
same,LEUKOCYTE COUNT,[2],8.18 x10E3/uL
same,LYMPHOCYTE,[2],92.17%
same,MEAN CORPUSCULAR HEMOGLOBIN,[2],24.57 pg
same,MEAN CORPUSCULAR HEMOGLOBIN CONCENTRATION,[2],38.82 G/DL
same,MEAN CORPUSCULAR VOLUME,[2],63.3 fL
same,MONOCYTE,[2],1%
same,NEUTROPHIL,[2],6.67%
same,NUCLEATED RED BLOOD CELLS,[2],0 /100WBC
same,PLATELET COUNT,[2],1141 x10E3/uL
same,ALANINE AMINOTRANSFERASE,[2],48.33 u/L
same,ALBUMIN,[2],4.07 G/DL
same,ALKALINE PHOSPHATASE,[2],395.67 u/L
same,ASPARTATE AMINOTRANSFERASE,[2],85.67 u/L
same,BLOOD UREA NITROGEN,[2],15.83 mg/dL
same,CARBON DIOXIDE,[2],31.33 mmol/L
same,CHLORIDE,[2],100.83 MEQ/L
same,CHOLESTEROL,[2],62.33 mg/dL
same,CREATINE PHOSPHOKINASE,[2],248.33 u/L
same,CREATININE,[2],0.2 mg/dL
same,GLUCOSE,[2],135.67 mg/dL
same,LACTATE DEHYDROGENASE,[2],141.33 u/L
same,LIPASE,[2],9.5 u/L
same,PHOSPHORUS,[2],10.73 mg/dL
same,POTASSIUM,[2],6.07 MEQ/L
same,SODIUM,[2],145.35 MEQ/L
same,TOTAL BILIRUBIN,[2],0.22 mg/dL
same,TOTAL PROTEIN,[2],6.12 G/DL
same,URIC ACID,[2],0.63 mg/dL
same,ABSOLUTE BASOPHIL,[3],0 CELLS/uL
same,ABSOLUTE EOSINOPHIL,[3],0 CELLS/uL
same,ABSOLUTE LYMPHOCYTE,[3],11252 CELLS/uL
same,ABSOLUTE MONOCYTE,[3],71.67 CELLS/uL
same,ABSOLUTE SEGMENTED NEUTROPHIL,[3],843 CELLS/uL
same,BASOPHIL,[3],0%
same,EOSINOPHIL,[3],0%
same,ERYTHROCYTE COUNT,[3],5.24 x10E6/uL
same,HEMATOCRIT,[3],32.97%
same,HEMOGLOBIN,[3],12.83 G/DL
same,LEUKOCYTE COUNT,[3],12.17 x10E3/uL
same,LYMPHOCYTE,[3],92.33%
same,MEAN CORPUSCULAR HEMOGLOBIN,[3],24.5 pg
same,MEAN CORPUSCULAR HEMOGLOBIN CONCENTRATION,[3],38.93 G/DL
same,MEAN CORPUSCULAR VOLUME,[3],62.97 fL
same,MONOCYTE,[3],0.67%
same,NEUTROPHIL,[3],7%
same,NUCLEATED RED BLOOD CELLS,[3],0 /100WBC
same,PLATELET COUNT,[3],939 x10E3/uL
same,ALANINE AMINOTRANSFERASE,[3],57 u/L
same,ALBUMIN,[3],4.03 G/DL
same,ALKALINE PHOSPHATASE,[3],444 u/L
same,ASPARTATE AMINOTRANSFERASE,[3],84.67 u/L
same,BLOOD UREA NITROGEN,[3],14.67 mg/dL
same,CARBON DIOXIDE,[3],33 mmol/L
same,CHLORIDE,[3],100 MEQ/L
same,CHOLESTEROL,[3],81.67 mg/dL
same,CREATINE PHOSPHOKINASE,[3],370 u/L
same,CREATININE,[3],0.37 mg/dL
same,GLUCOSE,[3],138.33 mg/dL
same,LACTATE DEHYDROGENASE,[3],111.33 u/L
same,LIPASE,[3],10.67 u/L
same,PHOSPHORUS,[3],11.57 mg/dL
same,POTASSIUM,[3],6.01 MEQ/L
same,SODIUM,[3],145.4 MEQ/L
same,TOTAL BILIRUBIN,[3],0.17 mg/dL
same,TOTAL PROTEIN,[3],5.77 G/DL
same,URIC ACID,[3],0.6 mg/dL
